The IC50 is the concentration that gives 50% inhibition. Low readings indicate inhibition by little substance, high ones a need for much substance. As usually defined, the inhibition is the change of the read-out against control, counted positive when it falls. Low readings indicate a response near the control, high ones a response far below the control. As a reminder, the half-life is the time needed for the level to fall by half in the phase considered. A word on the Cmax: it is the peak of the concentration-time curve.

A value given as a limit tells only on which side of the number the result lay.

In data set [1] the target is Cytochrome P450 2C9 (Homo sapiens, UniProt P11712). In words: (§1) Inhibition of CYP2C9 in human liver microsomes at 10 uM relative to control. It is filed as ADME, Microsome. The conditions noted are these: microsomes, 10 µM. In general terms: Microsomes from liver hold many membrane-bound enzymes, among them those of drug oxidation.
Sequence of Cytochrome P450 2C9 (P11712 whole entry): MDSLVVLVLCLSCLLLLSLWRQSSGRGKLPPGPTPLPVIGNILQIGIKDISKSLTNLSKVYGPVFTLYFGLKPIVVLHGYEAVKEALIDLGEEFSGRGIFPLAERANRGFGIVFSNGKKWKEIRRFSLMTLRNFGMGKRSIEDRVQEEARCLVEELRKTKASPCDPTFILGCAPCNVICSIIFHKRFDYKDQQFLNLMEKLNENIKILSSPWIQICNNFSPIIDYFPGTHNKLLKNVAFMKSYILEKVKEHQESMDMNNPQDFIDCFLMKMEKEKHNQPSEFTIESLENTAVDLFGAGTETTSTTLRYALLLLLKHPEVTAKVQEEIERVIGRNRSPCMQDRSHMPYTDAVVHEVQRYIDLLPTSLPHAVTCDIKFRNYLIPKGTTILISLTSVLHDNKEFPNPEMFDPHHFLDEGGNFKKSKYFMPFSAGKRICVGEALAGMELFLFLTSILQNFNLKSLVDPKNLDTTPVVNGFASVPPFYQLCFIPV
Data set [2] deals with Cytochrome P450 3A4 (Homo sapiens, UniProt P08684). In words: (§2) Inhibition of CYP3A4 in human liver microsomes at 10 uM relative to control. Format: ADME, Microsome. The conditions noted are these: microsomes, 10 µM.
Sequence of Cytochrome P450 3A4 (P08684 whole entry): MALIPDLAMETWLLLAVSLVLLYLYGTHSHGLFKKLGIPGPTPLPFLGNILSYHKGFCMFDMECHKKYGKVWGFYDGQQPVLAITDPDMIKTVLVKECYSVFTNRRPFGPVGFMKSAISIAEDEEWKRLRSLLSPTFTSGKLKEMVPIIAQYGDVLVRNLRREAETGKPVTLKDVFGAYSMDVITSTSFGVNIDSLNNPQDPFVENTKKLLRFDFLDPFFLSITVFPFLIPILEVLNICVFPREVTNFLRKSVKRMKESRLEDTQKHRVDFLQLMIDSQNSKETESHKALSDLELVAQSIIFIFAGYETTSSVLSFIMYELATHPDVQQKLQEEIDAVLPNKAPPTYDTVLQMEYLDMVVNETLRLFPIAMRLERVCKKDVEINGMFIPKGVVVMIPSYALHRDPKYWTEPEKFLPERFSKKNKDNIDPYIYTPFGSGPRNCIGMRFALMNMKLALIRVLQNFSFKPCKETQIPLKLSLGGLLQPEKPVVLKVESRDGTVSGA
Data set [3] can be described thus: Metabolic stability in mouse liver microsomes assessed as half life. The conditions noted are these: for t1/2: microsomes. Format: ADME, Microsome.
Data set [4] can be described thus: Metabolic stability in human liver microsomes assessed as half life. The conditions noted are these: for t1/2: microsomes. Format: ADME, Microsome.
For data set [5], the target named is T1, Delta-type opioid receptor (Homo sapiens, UniProt P41143). In words: Antagonist activity against human DOR expressed in CHO-K1 cells assessed as maximal inhibition of forskolin-induced cAMP accumulation pretreated for 15 mins followed by forskolin addition measured after 30 mins by HitHunter cAMP assay normalized to naltrexone. Format: functional, cell-based. The conditions noted are these: filed as antagonist, time 45.0 min. A general note: Cyclic AMP is a second messenger, typically raised through Gs and lowered through Gi signalling.
T1 sequence (P41143 whole entry): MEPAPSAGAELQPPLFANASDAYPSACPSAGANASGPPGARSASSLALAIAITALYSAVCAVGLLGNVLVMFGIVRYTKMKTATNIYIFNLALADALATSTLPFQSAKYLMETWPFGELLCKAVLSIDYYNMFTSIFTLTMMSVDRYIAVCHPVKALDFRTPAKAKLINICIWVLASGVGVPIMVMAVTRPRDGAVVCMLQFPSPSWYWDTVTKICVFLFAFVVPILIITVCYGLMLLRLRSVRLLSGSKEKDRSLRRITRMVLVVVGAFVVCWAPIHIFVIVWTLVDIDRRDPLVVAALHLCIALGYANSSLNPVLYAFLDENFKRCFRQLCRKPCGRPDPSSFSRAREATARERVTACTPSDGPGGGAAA

In data set [6] the target is T2, Cytochrome P450 1A2 (Homo sapiens, UniProt P05177).
T2 sequence (P05177 whole entry): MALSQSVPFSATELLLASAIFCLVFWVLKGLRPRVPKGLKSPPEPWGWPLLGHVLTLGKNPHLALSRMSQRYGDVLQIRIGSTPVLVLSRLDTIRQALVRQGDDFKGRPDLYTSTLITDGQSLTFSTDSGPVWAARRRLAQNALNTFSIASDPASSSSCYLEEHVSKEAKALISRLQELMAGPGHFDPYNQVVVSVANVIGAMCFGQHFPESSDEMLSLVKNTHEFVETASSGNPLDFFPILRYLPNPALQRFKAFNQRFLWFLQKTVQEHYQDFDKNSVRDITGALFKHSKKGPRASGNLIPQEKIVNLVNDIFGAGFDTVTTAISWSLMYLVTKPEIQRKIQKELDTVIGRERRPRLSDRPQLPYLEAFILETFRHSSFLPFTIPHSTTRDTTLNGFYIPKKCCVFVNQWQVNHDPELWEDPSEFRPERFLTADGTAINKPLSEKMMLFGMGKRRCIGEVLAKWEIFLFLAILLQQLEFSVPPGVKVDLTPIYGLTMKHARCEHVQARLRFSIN
In words: (§3) Inhibition of CYP1A2 in human liver microsomes at 10 uM relative to control. Format: ADME, Microsome. The settings on record: microsomes, 10 µM.

In data set [7] the target is Cytochrome P450 2D6 (Homo sapiens, UniProt P10635). In words: (§4) Inhibition of CYP2D6 in human liver microsomes at 10 uM relative to control. Format: ADME, Microsome. The conditions noted are these: microsomes, 10 µM.
Sequence of Cytochrome P450 2D6 (P10635 whole entry): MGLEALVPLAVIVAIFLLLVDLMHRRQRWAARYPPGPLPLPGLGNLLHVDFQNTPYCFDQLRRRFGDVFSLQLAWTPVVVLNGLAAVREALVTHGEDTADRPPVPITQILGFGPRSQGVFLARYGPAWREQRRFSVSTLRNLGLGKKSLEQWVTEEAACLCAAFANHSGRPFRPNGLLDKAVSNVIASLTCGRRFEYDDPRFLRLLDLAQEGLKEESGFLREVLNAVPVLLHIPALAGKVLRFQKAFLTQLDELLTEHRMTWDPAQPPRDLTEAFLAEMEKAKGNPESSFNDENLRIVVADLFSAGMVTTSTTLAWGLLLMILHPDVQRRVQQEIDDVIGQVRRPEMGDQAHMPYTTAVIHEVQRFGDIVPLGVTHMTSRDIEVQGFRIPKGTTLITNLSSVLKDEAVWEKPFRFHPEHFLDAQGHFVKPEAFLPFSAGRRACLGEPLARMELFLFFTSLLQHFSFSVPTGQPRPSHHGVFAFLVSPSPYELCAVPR
Data set [8] addresses Cytochrome P450 2C19 (Homo sapiens, UniProt P33261). In words: (§5) Inhibition of CYP2C19 in human liver microsomes at 10 uM relative to control. It is filed as ADME, Microsome. The settings on record: microsomes, 10 µM.
Data set [9] concerns the target T1, Delta-type opioid receptor.
Data set [10] has as its target CYP2C9 (Homo sapiens, UniProt P11712). The description is as §1. It is filed as ADME, Microsome. The conditions noted are these: liver microsomes.
Data set [11] deals with CYP3A4 (Homo sapiens, UniProt P08684). The description is as §2. The conditions noted are these: liver microsomes. Format: ADME, Microsome.
Sequence of CYP3A4 (P08684 whole entry): as the sequence (P08684 whole entry) above
Data set [12] has as its target CYP1A2 (Homo sapiens, UniProt P05177). The description is as §3. Format: ADME, Microsome. The conditions noted are these: liver microsomes.
The target in data set [13] is CYP2D6 (Homo sapiens, UniProt P10635). Described as §4. It is filed as ADME, Microsome. The settings on record: liver microsomes.
Sequence of CYP2D6 (P10635 whole entry): as the sequence (P10635 whole entry) above
Data set [14] deals with CYP2C19 (Homo sapiens, UniProt P33261). Described as §5. Format: ADME, Microsome. The settings on record: liver microsomes.
The nature of data set [15]: Half life in Sprague-Dawley rat plasma at 2 mg/kg, ip by LC-MS/MS analysis. Format: ADME, organism-based.
Data set [16] has as its target D(2) dopamine receptor (Homo sapiens) (UniProt P14416). In words: Antagonist activity at D2S receptor (unknown origin) assessed as maximal response. The conditions noted are these: filed as antagonist.
In data set [17] the target is Glutamate [NMDA] receptor (Homo sapiens) (UniProt Q05586+Q12879+Q13224+O15399+O60391+Q14957+Q8TCU5). In words: Inhibition of NMDA receptor (unknown origin) assessed as maximal response. It is filed as protein-complex assay.
Data set [18] deals with T3, Rho-associated protein kinase 1 (Homo sapiens, UniProt Q13464). In words: Inhibition of ROCK1 (unknown origin) assessed as maximal response.
For data set [19], the target named is Alpha-1A adrenergic receptor (Homo sapiens) (UniProt P35348). In words: Antagonist activity at alpha1A adrenoreceptor (unknown origin) assessed as maximal response. The settings on record: filed as antagonist.
Sequence of Alpha-1A adrenergic receptor (Homo sapiens) (P35348 whole entry): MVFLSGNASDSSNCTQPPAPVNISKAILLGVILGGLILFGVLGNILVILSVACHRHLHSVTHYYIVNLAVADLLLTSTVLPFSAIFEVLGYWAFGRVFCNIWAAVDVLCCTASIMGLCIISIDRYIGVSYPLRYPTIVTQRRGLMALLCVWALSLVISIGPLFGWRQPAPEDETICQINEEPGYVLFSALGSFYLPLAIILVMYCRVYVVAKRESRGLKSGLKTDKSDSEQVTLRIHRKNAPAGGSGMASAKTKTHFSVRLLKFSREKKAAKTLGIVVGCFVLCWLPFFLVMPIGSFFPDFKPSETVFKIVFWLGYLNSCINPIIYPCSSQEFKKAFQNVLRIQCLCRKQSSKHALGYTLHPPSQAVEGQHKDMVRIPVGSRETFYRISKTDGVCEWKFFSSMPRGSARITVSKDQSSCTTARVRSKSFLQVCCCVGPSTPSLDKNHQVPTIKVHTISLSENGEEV
In data set [20] the target is T4, Sodium-dependent dopamine transporter (Homo sapiens, UniProt Q01959). In words: Inhibition of Dopamine transporter (unknown origin) assessed as maximal response.
T4 sequence (Q01959 whole entry): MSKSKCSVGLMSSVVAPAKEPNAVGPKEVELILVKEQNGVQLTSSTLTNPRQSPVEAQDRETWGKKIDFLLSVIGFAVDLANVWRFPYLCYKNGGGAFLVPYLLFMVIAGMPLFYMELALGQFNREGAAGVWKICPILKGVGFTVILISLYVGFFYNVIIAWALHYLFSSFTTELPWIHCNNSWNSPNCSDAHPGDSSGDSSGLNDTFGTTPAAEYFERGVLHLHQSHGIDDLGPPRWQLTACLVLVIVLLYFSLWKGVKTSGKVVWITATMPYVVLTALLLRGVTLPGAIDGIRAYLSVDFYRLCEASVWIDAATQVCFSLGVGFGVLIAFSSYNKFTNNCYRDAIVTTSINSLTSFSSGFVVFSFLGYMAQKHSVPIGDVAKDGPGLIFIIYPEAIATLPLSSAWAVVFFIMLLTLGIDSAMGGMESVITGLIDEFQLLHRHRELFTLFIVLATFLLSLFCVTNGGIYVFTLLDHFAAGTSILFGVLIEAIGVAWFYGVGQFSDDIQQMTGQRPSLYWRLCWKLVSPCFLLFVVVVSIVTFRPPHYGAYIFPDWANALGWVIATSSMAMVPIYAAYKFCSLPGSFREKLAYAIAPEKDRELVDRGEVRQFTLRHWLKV
For data set [21], the target named is T5, Sodium-dependent noradrenaline transporter (Homo sapiens, UniProt P23975). In words: Inhibition of Norepinephrine transporter (unknown origin) assessed as maximal response.
T5 sequence (P23975 whole entry): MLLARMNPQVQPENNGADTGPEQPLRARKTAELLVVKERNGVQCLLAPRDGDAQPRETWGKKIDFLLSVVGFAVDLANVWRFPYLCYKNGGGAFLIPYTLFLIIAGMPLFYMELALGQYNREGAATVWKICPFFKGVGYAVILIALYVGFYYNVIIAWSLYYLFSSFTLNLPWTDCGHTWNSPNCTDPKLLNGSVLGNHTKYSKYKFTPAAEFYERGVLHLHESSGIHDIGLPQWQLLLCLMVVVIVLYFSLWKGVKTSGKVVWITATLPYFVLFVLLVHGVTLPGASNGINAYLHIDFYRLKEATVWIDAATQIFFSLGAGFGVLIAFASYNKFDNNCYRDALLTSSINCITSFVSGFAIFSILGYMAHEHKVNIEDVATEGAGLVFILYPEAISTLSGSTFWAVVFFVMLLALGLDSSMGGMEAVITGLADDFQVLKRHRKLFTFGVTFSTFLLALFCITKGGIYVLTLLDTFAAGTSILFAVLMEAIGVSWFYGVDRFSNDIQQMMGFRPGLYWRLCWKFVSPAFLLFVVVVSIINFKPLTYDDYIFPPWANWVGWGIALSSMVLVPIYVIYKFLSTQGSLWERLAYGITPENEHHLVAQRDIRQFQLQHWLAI
The target in data set [22] is Mu-type opioid receptor (Homo sapiens, UniProt P35372). Format: functional, cell-based, CHO-K1.
Sequence of Mu-type opioid receptor (P35372 whole entry): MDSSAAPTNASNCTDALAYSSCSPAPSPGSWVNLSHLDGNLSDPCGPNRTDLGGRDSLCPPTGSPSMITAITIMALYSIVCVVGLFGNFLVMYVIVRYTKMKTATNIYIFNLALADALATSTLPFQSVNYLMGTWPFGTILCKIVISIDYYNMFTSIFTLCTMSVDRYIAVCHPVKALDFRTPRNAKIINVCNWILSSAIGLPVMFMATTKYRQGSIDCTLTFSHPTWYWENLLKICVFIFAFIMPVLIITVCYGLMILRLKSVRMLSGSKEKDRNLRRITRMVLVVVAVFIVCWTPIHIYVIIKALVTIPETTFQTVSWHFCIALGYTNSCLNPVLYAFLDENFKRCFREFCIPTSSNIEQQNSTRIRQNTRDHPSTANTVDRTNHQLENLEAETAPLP
Data set [23] is described as follows: Metabolic stability in mouse liver microsomes assessed as intrinsic clearance. Format: ADME, Microsome.
Data set [24] has as its target T4, Sodium-dependent dopamine transporter. In words: Inhibition of Dopamine transporter (unknown origin).
The target in data set [25] is hERG (KCNH2) (Homo sapiens, UniProt Q12809). In words: Inhibition of hERG channel assessed as maximal response. It is filed as toxicity. The settings on record: read-out: Imax. (In general: hERG is a cardiac potassium channel; its block is linked to QT prolongation.)
For data set [26], the target named is T3, Rho-associated protein kinase 1. In words: Inhibition of ROCK1 (unknown origin).
Data set [27] concerns the target Voltage-gated inwardly rectifying potassium channel KCNH2 (Homo sapiens, UniProt Q12809). In words: Inhibition of hERG channel. It is filed as toxicity.
Data set [28] has as its target Glutamate [NMDA] receptor. In words: Inhibition of NMDA receptor (unknown origin). Format: protein-complex assay, Homo sapiens.
Data set [29] has as its target T5, Sodium-dependent noradrenaline transporter. In words: Inhibition of Norepinephrine transporter (unknown origin).
In data set [30] the target is Kappa-type opioid receptor (Homo sapiens, UniProt P41145). Format: functional, cell-based, CHO-K1.
Sequence of Kappa-type opioid receptor (P41145 whole entry): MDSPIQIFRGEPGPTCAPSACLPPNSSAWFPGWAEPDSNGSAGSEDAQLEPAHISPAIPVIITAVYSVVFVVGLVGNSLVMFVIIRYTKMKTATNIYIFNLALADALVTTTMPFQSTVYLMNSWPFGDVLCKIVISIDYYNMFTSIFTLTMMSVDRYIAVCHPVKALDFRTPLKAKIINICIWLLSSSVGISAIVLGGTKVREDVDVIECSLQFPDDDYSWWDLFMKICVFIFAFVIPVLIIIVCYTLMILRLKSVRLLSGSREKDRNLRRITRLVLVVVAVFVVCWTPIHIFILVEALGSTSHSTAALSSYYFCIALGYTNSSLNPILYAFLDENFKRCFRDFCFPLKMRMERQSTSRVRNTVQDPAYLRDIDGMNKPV
Data set [31] is described as follows: Cmax in Sprague-Dawley rat plasma at 1 mg/kg, ip by LC-MS/MS analysis. Format: ADME, organism-based.
Data set [32] is described as follows: Cmax in Sprague-Dawley rat plasma at 2 mg/kg, ip by LC-MS/MS analysis. It is filed as ADME, organism-based.
Data set [33] in a line: Drug uptake in Sprague-Dawley rat brain at 1 mg/kg, ip by LC-MS/MS analysis. It is filed as ADME, organism-based. The conditions noted are these: in vivo.
A short description of data set [34]: Half life in Sprague-Dawley rat plasma at 1 mg/kg, ip by LC-MS/MS analysis. Format: ADME, organism-based.

Sequence of Cytochrome P450 2C19 (P33261 whole entry): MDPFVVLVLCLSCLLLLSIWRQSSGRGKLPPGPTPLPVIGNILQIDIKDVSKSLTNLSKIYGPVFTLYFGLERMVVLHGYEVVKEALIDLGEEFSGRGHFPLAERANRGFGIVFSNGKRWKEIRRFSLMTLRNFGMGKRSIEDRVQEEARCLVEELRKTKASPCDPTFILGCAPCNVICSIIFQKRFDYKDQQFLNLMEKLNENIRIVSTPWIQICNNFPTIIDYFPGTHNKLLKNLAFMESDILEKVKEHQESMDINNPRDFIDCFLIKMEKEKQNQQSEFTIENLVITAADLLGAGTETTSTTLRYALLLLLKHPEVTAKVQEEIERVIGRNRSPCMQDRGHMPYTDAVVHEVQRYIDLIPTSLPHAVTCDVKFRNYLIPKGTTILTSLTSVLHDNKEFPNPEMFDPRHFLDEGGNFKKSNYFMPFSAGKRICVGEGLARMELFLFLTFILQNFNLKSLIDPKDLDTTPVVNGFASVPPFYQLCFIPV

`COc1cc(CNCCc2ccccc2)ccc1Oc1ccc(C(N)=O)cn1`: the “inhibition (INH)” value in [1] is 13.1%; in data set [2], 7.8%; in [6], 1%; in data set [7], 61.2%; in [8], 1.6%. Further, the values for the t1/2 in [3] and in data set [4] were 41.9 min and more than 145 min, respectively. Further, in data set [5], the Imax is 157%.
Turning to `C[C@H]1CN(CC[C@H](O)C2CCCCC2)CC[C@@]1(C)c1cccc(O)c1`, the IC50 in data set [9] was 3.98 nM. Moreover, the inhibition at 10 µM was determined as 11.9% in data set [10]; 0% in data set [11]; 14.5% in data set [12]; 86.4% in data set [13]; 35.1% in data set [14]. In addition, the half-life was 1.9 min in data set [3] (liver microsomes) and 6.4 min in data set [4] (liver microsomes). Also, in data set [5], the Imax is 155%.
In the case of `C=CCN1CC[C@]23c4c5ccc(O)c4O[C@H]2[C@@H](OCCOCCOCCOCCOCCOCCOCCOC)CC[C@@]3(O)[C@H]1C5`, the Imax in data set [5] amounted to 103%.
With `C=CCN1CC[C@]23c4c5ccc(O)c4O[C@H]2C(=O)CC[C@@]3(O)[C@H]1C5` [NALOXONE], in data set [15], the half-life was 20.9 min.
Turning to `NC(=O)c1ccc(Oc2ccc(CNCCc3ccccc3)cc2)nc1` [listing 1 of 2 here], the Emax in [16] stood at 99.4%. Further, the Imax in data set [17] was found to be 64.3%; in data set [18] it was 76.1%; in [5], 230%; in data set [19] it was 99.9%; in [20] it was 71.5%; in data set [21], 83.9%.
`COc1cc(CNCCC2CCCCC2)ccc1Oc1ccc(C(N)=O)cn1`: it took 3.16 nM to reach half-maximal inhibition in [22] (IC50).
For `NC(=O)c1ccc(Oc2ccc(CNCCc3ccccc3)cc2)nc1` [listing 2 of 2 here], the CLH in [23] was determined as 22.05 µL/min/mg. Further, the “inhibition (INH)” value in [2] is reported as 6.8%; in data set [6], 0.6%; in data set [7], 72.7%; in [8], 11.6%. The IC50 in data set [24] stood at 3020 nM; in data set [26], 3740 nM; in data set [27], 5550 nM; in data set [28] it was 4980 nM; in data set [29], 1500 nM. The figures for the t1/2 in [3] and in [4] were 62.9 min and more than 145 min, respectively. Also, in data set [25], the Emax was 63.7%.
In the case of `COc1cc(CNCCC(C)C)ccc1Oc1ccc(C(N)=O)cn1`, the values for the IC50 in [9] and in data set [22] were 5.01 nM and 2 nM, respectively. The “inhibition (INH)” value amounted to 9.7% in [1]; 3.8% in data set [2]; 0% in [6]; 35.2% in [7]; 21.7% in [8]. Further, the t1/2 in data set [3] and in [4] was more than 145 min in each case. In addition, in data set [5], the Imax turned out to be 187%.
With `COc1cc(CNC2Cc3ccccc3C2)ccc1Oc1ccc(C(N)=O)cn1`, the IC50 in [9] is 0.631 nM; in data set [30], 10 nM; in data set [22], 0.398 nM. Moreover, in data set [5], the Imax was determined as 168%.
For the compound `NC(=O)c1ccc(Oc2ccc(CNCCc3ccccc3)cc2)cc1`, the “inhibition (INH)” value in [1] was 9.5%; in [2], 0%; in data set [6], 0%; in data set [7], 66.4%; in [8], 27.7%. For the same compound, the t1/2 is recorded as 7.6 min in [3] and more than 145 min in data set [4]. In addition, the IC50 in data set [30] was 10 nM.
`NC(=O)c1ccc(Oc2ccc(CNCCc3ccccc3)cc2Cl)nc1`: the “inhibition (INH)” value in [1] is given as 4.8%; in data set [2], 0%; in data set [6] it was 12.1%; in data set [7] it was 45.4%; in data set [8], 9.1%. Further, the figures for the t1/2 in data set [3] and in data set [4] were 13.6 min and 110.2 min, respectively. The midpoint of inhibition in [22], the IC50, lay at 1.26 nM. For the same compound, the Imax in data set [5] amounted to 158%.
On to `C=C1CC[C@@]2(O)[C@H]3Cc4ccc(O)c5c4[C@@]2(CCN3CC2CC2)[C@H]1O5`, for which the “inhibition (INH)” value in data set [1] was found to be 0%; in data set [2] it was 0.2%; in data set [6], 0%; in data set [7] it was 68.2%; in data set [8], 0%. Moreover, the t1/2 in data set [3] was 87.1 min; in data set [4], more than 145 min.
`CC(C)(NC(=O)C1=C(O)[C@@H]2Oc3c(O)ccc4c3[C@@]23CCN(CC2CC2)[C@H](C4)[C@]3(O)C1)c1nc(-c2ccccc2)no1` [NALDEMEDINE]: in [22], the midpoint of inhibition, the IC50, lay at 3.16 nM.
With `Cl.NC(=O)c1ccc(Oc2ccc(CNCCc3ccccc3)cc2)nc1`, the figures for the Cmax in data set [31] and in data set [32] were 92.8 ng/mL and 182 ng/mL, respectively. The Drug uptake entry in [33] was “Not_active”. Moreover, the results for the half-life in [15] and in [34] were 20.9 min and 91.2 min, respectively.
For the compound `NC(=O)c1ccc(Oc2ccc(CNCCc3ccccc3)cc2OCc2ccccc2)nc1`, the IC50 in data set [9] was 3.98 nM; in data set [22] it was 3.16 nM. The Imax in [5] amounted to 152%.
For the compound `C=CC[N+]1(C)CC[C@]23c4c5ccc(O)c4O[C@H]2C(=O)CC[C@@]3(O)[C@H]1C5` (stereo partly drawn) [NALOXONE METHIODIDE], in [22], the IC50 is 631 nM.

For the origin of these results see ChEMBL document CHEMBL6182939, “Searching for Synthetic Opioid Rescue Agents. 2: Identification of an Ultra-Potent Synthetic Opioid Rescue Agent” (J Med Chem, 2025).
